The text below walks through data of patent US20130072470A1 (ABBVIE INC., priority 2011, published 2013).

The target in one test is T1, Jak3 enzyme (aa 811-1103) (Homo sapiens, UniProt P52333).
T1 construct: Jak3 enzyme (aa 811-1103); expressed in SF9 cells as a GST fusion; GST; made in house; host or cells: SF9 insect cells
T1 sequence (P52333 811-1103): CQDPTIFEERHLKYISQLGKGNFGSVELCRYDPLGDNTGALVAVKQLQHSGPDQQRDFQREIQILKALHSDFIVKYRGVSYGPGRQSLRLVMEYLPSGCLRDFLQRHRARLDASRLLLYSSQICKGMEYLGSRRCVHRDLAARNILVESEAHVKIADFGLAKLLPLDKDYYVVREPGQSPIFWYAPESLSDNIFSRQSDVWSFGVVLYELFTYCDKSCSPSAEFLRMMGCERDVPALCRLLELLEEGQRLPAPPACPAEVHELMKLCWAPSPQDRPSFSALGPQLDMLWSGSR
Kind of test: In vitro Jak3 kinase activity measured by time-resolved fluorescence resonance energy transfer (trFRET). It is filed as biochemical. The conditions noted are these: ATP 0.001 mM. On the procedure: In Vitro Jak3 Kinase Activity Measured by Time-Resolved Fluorescence Resonance Energy Transfer (trFRET)
Varying concentrations of inhibitor were added to an assay well containing: Jak3 enzyme (aa 811-1103; expressed in SF9 cells as a GST fusion and purified by glutathione affinity chromatography; 3 nM), peptide substrate (biotin-TYR2, Sequence: Biotin-(Ahx)-AEEEYFFLFA-amide; 2 μM), MOPSO pH 6.5 (50 mM), MgCl2 (10 mM), MnCl2 (2 mM), DTT (2.5 mM), BSA (0.01% w/v), Na3VO4 (0.1 mM) and ATP (0.001 mM). After about 60 min incubation at rt, the reaction was quenched by addition of EDTA (final concentration: 100 mM) and developed by addition of revelation reagents (final approximate concentrations: 30 mM HEPES pH 7.0, 0.06% BSA, 0.006% Tween-20, 0.24 M KF, 80 ng/mL PT66K (europium labeled anti-phosphotyrosine antibody cat #61T66KLB Cisbio, Bedford, Mass.) and 0.8 μg/mL SAXL (Phycolink streptavidin-allophycocyanin acceptor, cat #PJ52S, Prozyme, San Leandro, Calif.). The developed reaction was incubated in the dark either at about 4° C., for about 14 h or for about 60 min at rt, then read via a time-resolved fluorescence detector (Rubystar, BMG) using a 337 nm laser for excitation and emission wavelength of 665 nm. Within the linear range of the assay, the observed signal at 665 nm is directly related to phosphorylated product and used to calculate the IC50 values.
In general, IC50 refers to the point on the concentration scale where inhibition reaches its midpoint. Read a low IC50 as greater potency in that assay. In the case of `C[C@@H]1C[C@H](NC(=O)c2cccnn2)C[C@@H]1c1cnc2cnc3[nH]ccc3n12` [Example #2, N-((1S,3S,4R)-3-(3H-imidazo[1,2-a]pyrrolo[2,3-e]pyrazin-8-yl)-4-methylcyclopentyl)pyridazine-3-carboxamide], the IC50 is above 10 µM.

`C[C@@H]1C[C@@H](CCC#N)C[C@@H]1n1nnc2cnc3[nH]ccc3c21` [Example #11, 3-((1R,3R,4S)-3-methyl-4-(pyrrolo[2,3-b][1,2,3]triazolo[4,5-d]pyridin-1(6H)-yl)cyclopentyl)propanenitrile] yielded an IC50 of 1 to 10 µM.

`CC[C@@H]1C[C@H](NC(=O)c2coc(C)n2)C[C@@H]1c1nnc2cnc3[nH]ccc3n12` [Example #24, N-((1S,3R,4S)-3-ethyl-4-(6H-pyrrolo[2,3-e][1,2,4]triazolo[4,3-a]pyrazin-1-yl)cyclopentyl)-2-methyloxazole-4-carboxamide] gave an IC50 of 1 to 10 µM.

In the case of `C[C@@H]1C[C@H](N2CCC(C#N)CC2)C[C@@H]1c1cnc2cnc3[nH]ccc3n12` [Example #5, 1-((1S,3S,4R)-3-(3H-imidazo[1,2-a]pyrrolo[2,3-e]pyrazin-8-yl)-4-methylcyclopentyl)piperidine-4-carbonitrile], the concentration for half-maximal inhibition (IC50) is above 10 µM.

Regarding `CC[C@@H]1CN(C(=O)NCCF)C[C@@H]1c1cnc2cnc3[nH]ccc3n12` [Example #13, (3S,4R)-3-ethyl-N-(2-fluoroethyl)-4-(3H-imidazo[1,2-a]pyrrolo[2,3-e]pyrazin-8-yl)pyrrolidine-1-carboxamide], the IC50 was 1 to 10 µM.

In turn, `C[C@@H]1C[C@H](N(C)C(=O)c2cocn2)C[C@@H]1c1cnc2cnc3[nH]ccc3n12` [Example #3, N-((1S,3S,4R)-3-(3H-imidazo[1,2-a]pyrrolo[2,3-e]pyrazin-8-yl)-4-methylcyclopentyl)-N-methyloxazole-4-carboxamide] had an IC50 of 1 to 10 µM.

The compound `CC[C@@H]1C[C@@H](CCC#N)C[C@@H]1c1nnc2cnc3[nH]ccc3n12` [Example #23, 3-((1R,3R,4S)-3-ethyl-4-(6H-pyrrolo[2,3-e][1,2,4]triazolo[4,3-a]pyrazin-1-yl)cyclopentyl)propanenitrile] came in with an IC50 of 1 to 10 µM.

Regarding `CC[C@@H]1CN(C(=O)NCC(C)(F)F)C[C@@H]1c1cnc2cnc3[nH]ccc3n12` [Example #16, (3S,4R)—N-(2,2-difluoropropyl)-3-ethyl-4-(3H-imidazo[1,2-a]pyrrolo[2,3-e]pyrazin-8-yl)pyrrolidine-1-carboxamide], the IC50 is above 10 µM.

Still in this test, the particulars now being: ATP 0.001 mM, Table B.
Compound `CC[C@@H]1C[C@H](NC(=O)CN(C)C(=O)c2ccco2)C[C@@H]1c1nnc2cnc3[nH]ccc3n12` [compound 27, N-(2-((1S,3R,4S)-3-ethyl-4-(6H-pyrrolo[2,3-e][1,2,4]triazolo[4,3-a]pyrazin-1-yl)cyclopentylamino)-2-oxoethyl)-N-methylfuran-2-carboxamide] displayed an IC50 above 10 µM.

Take `CC[C@@H]1C[C@H](NC(=O)c2coc3ccccc23)C[C@@H]1c1nnc2cnc3[nH]ccc3n12` [compound 32, N-((1S,3R,4S)-3-ethyl-4-(6H-pyrrolo[2,3-e][1,2,4]triazolo[4,3-a]pyrazin-1-yl)cyclopentyl)benzofuran-3-carboxamide]: the concentration for half-maximal inhibition (IC50) was in the range of 1 to 10 µM.

The compound `CC[C@@H]1C[C@H](NC(=O)c2ccc(C)o2)C[C@@H]1c1nnc2cnc3[nH]ccc3n12` [compound 46, N-((1S,3R,4S)-3-ethyl-4-(6H-pyrrolo[2,3-e][1,2,4]triazolo[4,3-a]pyrazin-1-yl)cyclopentyl)-5-methylfuran-2-carboxamide] gave an IC50 above 10 µM.

`CC[C@@H]1C[C@H](NC(=O)c2cocn2)C[C@@H]1c1nnc2cnc3[nH]ccc3n12` [compound 63, N-((1S,3R,4S)-3-ethyl-4-(6H-pyrrolo[2,3-e][1,2,4]triazolo[4,3-a]pyrazin-1-yl)cyclopentyl)oxazole-4-carboxamide] showed a half-maximal inhibitory concentration (IC50) of 1 to 10 µM.

As to `CC[C@@H]1C[C@H](NC(=O)C(CC2CC2)NC(C)=O)C[C@@H]1c1nnc2cnc3[nH]ccc3n12` (stereo partly drawn) [compound 31, 2-acetamido-3-cyclopropyl-N-((1S,3R,4S)-3-ethyl-4-(6H-pyrrolo[2,3-e][1,2,4]triazolo[4,3-a]pyrazin-1-yl)cyclopentyl)propanamide], the IC50 is above 10 µM.

With `CC[C@@H]1C[C@H](NC(=O)c2noc3ccccc23)C[C@@H]1c1nnc2cnc3[nH]ccc3n12` [compound 68, N-((1S,3R,4S)-3-ethyl-4-(6H-pyrrolo[2,3-e][1,2,4]triazolo[4,3-a]pyrazin-1-yl)cyclopentyl)benzo[d]isoxazole-3-carboxamide], the IC50 was below 1 µM.

On to `CC[C@@H]1C[C@H](NC(=O)Cc2noc3ccccc23)C[C@@H]1c1nnc2cnc3[nH]ccc3n12` [compound 71, 2-(benzo[d]isoxazol-3-yl)-N-((1S,3R,4S)-3-ethyl-4-(6H-pyrrolo[2,3-e][1,2,4]triazolo[4,3-a]pyrazin-1-yl)cyclopentyl)acetamide], for which the concentration for half-maximal inhibition (IC50) lay in the range of 1 to 10 µM.

For `CC[C@@H]1C[C@H](NC(=O)c2cc(C)no2)C[C@@H]1c1nnc2cnc3[nH]ccc3n12` [compound 62, N-((1S,3R,4S)-3-ethyl-4-(6H-pyrrolo[2,3-e][1,2,4]triazolo[4,3-a]pyrazin-1-yl)cyclopentyl)-3-methylisoxazole-5-carboxamide], the IC50 fell in the range of 1 to 10 µM.

`CC[C@@H]1C[C@H](NC(=O)c2ccno2)C[C@@H]1c1nnc2cnc3[nH]ccc3n12` [compound 50, N-((1S,3R,4S)-3-ethyl-4-(6H-pyrrolo[2,3-e][1,2,4]triazolo[4,3-a]pyrazin-1-yl)cyclopentyl)isoxazole-5-carboxamide] displayed an IC50 of 1 to 10 µM.

In turn, `CC[C@@H]1C[C@H](NC(=O)c2cc3ccccc3o2)C[C@@H]1c1nnc2cnc3[nH]ccc3n12` [compound 57, N-((1S,3R,4S)-3-ethyl-4-(6H-pyrrolo[2,3-e][1,2,4]triazolo[4,3-a]pyrazin-1-yl)cyclopentyl)benzofuran-2-carboxamide] showed an IC50 of 1 to 10 µM.

In the case of `CC[C@@H]1C[C@H](NC(=O)C2=NN=C(c3ccco3)C2)C[C@@H]1c1nnc2cnc3[nH]ccc3n12` [compound 39, N-((1S,3R,4S)-3-ethyl-4-(6H-pyrrolo[2,3-e][1,2,4]triazolo[4,3-a]pyrazin-1-yl)cyclopentyl)-5-(furan-2-yl)-4H-pyrazole-3-carboxamide], the IC50 was below 1 µM.

Compound `CC[C@@H]1C[C@H](NC(=O)CSc2nnc(C)o2)C[C@@H]1c1nnc2cnc3[nH]ccc3n12` [compound 75, N-((1S,3R,4S)-3-ethyl-4-(6H-pyrrolo[2,3-e][1,2,4]triazolo[4,3-a]pyrazin-1-yl)cyclopentyl)-2-(5-methyl-1,3,4-oxadiazol-2-ylthio)acetamide] gave a half-maximal inhibitory concentration (IC50) of 1 to 10 µM.

In turn, `CC[C@@H]1C[C@H](NC(=O)c2noc3c2CC(C)CC3)C[C@@H]1c1nnc2cnc3[nH]ccc3n12` (stereo partly drawn) [compound 29, N-((1S,3R,4S)-3-ethyl-4-(6H-pyrrolo[2,3-e][1,2,4]triazolo[4,3-a]pyrazin-1-yl)cyclopentyl)-5-methyl-4,5,6,7-tetrahydrobenzo[d]isoxazole-3-carboxamide] displayed an IC50 of 1 to 10 µM.

`CC[C@@H]1C[C@H](NC(=O)/C=C/c2ccc(C)o2)C[C@@H]1c1nnc2cnc3[nH]ccc3n12` [compound 25, (E)-N-((1S,3R,4S)-3-ethyl-4-(6H-pyrrolo[2,3-e][1,2,4]triazolo[4,3-a]pyrazin-1-yl)cyclopentyl)-3-(5-methylfuran-2-yl)acrylamide] returned an IC50 of 1 to 10 µM.
